Laboratory results as given in paper PMC4051630, “A Comparison of Protein Kinases Inhibitor Screening Methods Using Both Enzymatic Activity and Binding Affinity Determination” (PLoS ONE, 2014).

Key:
Test in all cases: Differential Scanning Fluorimetry (DSF) Tm shift
Format in all cases: binding
AKT3 Catalytic Domain = target: T1, AKT3 Catalytic Domain (Homo sapiens, UniProt Q9Y243); details: 2 µM protein, 10 µM inhibitor, average of 3 experiments, each in duplicate
T1 construct: AKT3 (Q9Y243); CD; His-tag; made in house; host or cells: Escherichia coli

CDK2 + Cyclin A = target: T2, CDK2 + Cyclin A (Homo sapiens, UniProt P24941); details: CDK2 + Cyclin A; 2 µM protein, 10 µM inhibitor; average of 3 experiments, each in duplicate
T2 construct: CDK2 (P24941); 1–299; His-tag; made in house; host or cells: Escherichia coli

CDK2 + Cyclin E = target: T3, CDK2 + Cyclin E (Homo sapiens, UniProt P24941); details: CDK2 + Cyclin E; 2 µM protein, 10 µM inhibitor; average of 3 experiments, each in duplicate
T3 construct: CDK2 (P24941); 1–299; His-tag; made in house; host or cells: Escherichia coli

CHK2 Catalytic Domain = target: T4, CHK2 Catalytic Domain (Homo sapiens, UniProt O96017); details: 2 µM protein, 10 µM inhibitor, average of 3 experiments, each in duplicate
T4 construct: For all of them, we expressed and purified the catalytic domain separately; His-tag; made in house; host or cells: Escherichia coli

DMPK Catalytic Domain = target: T5, DMPK Catalytic Domain (Homo sapiens, UniProt Q09013); details: 2 µM protein, 10 µM inhibitor, average of 3 experiments, each in duplicate
T5 construct: For all of them, we expressed and purified the catalytic domain separately; His-tag; made in house; host or cells: Escherichia coli
T5 sequence (Q09013 71-339 limits assumed): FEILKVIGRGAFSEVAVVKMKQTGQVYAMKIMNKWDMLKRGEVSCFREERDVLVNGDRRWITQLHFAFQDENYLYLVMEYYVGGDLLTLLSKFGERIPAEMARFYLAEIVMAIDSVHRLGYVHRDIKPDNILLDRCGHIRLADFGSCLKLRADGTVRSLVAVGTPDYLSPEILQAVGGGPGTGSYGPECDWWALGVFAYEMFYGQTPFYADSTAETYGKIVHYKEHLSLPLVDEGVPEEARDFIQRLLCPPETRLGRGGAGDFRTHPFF

FAK2 Catalytic Domain = target: T6, FAK2 Catalytic Domain (Homo sapiens, UniProt Q14289); details: 2 µM protein, 10 µM inhibitor, average of 3 experiments, each in duplicate
T6 construct: For all of them, we expressed and purified the catalytic domain separately; His-tag; made in house; host or cells: Escherichia coli

FES Catalytic Domain+SH2 = target: T7, FES Catalytic Domain+SH2 (Homo sapiens, UniProt P07332); details: 2 µM protein, 10 µM inhibitor, average of 3 experiments, each in duplicate
T7 construct: for 8, we also made a longer version containing one or more additional domains; His-tag; made in house; host or cells: Escherichia coli

FES Catalytic Domain = target: T8, FES Catalytic Domain (Homo sapiens, UniProt P07332); details: 2 µM protein, 10 µM inhibitor, average of 3 experiments, each in duplicate
T8 construct: For all of them, we expressed and purified the catalytic domain separately; His-tag; made in house; host or cells: Escherichia coli

[1] = target: T9, PAK4 Catalytic Domain+PBD (Homo sapiens, UniProt O96013); details: 2 µM protein, 10 µM inhibitor, average of 3 experiments, each in duplicate
T9 construct: for 8, we also made a longer version containing one or more additional domains; His-tag; made in house; host or cells: Escherichia coli

PAK4 Catalytic Domain = target: T10, PAK4 Catalytic Domain (Homo sapiens, UniProt O96013); details: 2 µM protein, 10 µM inhibitor, average of 3 experiments, each in duplicate
T10 construct: For all of them, we expressed and purified the catalytic domain separately; His-tag; made in house; host or cells: Escherichia coli

PAK7 Catalytic Domain = target: T11, PAK7 Catalytic Domain (Homo sapiens, UniProt Q9P286); details: 2 µM protein, 10 µM inhibitor, average of 3 experiments, each in duplicate
T11 construct: For all of them, we expressed and purified the catalytic domain separately; His-tag; made in house; host or cells: Escherichia coli

[2] = target: SRC Catalytic Domain+SH2+SH3 (Homo sapiens, UniProt P12931); details: 2 µM protein, 10 µM inhibitor, average of 3 experiments, each in duplicate
[3] = target: T12, STK3 Catalytic domain+SARAH (Homo sapiens, UniProt Q13188); details: 2 µM protein, 10 µM inhibitor, average of 3 experiments, each in duplicate
T12 construct: for 8, we also made a longer version containing one or more additional domains; His-tag; made in house; host or cells: Escherichia coli
T12 sequence (Q13188 1-491): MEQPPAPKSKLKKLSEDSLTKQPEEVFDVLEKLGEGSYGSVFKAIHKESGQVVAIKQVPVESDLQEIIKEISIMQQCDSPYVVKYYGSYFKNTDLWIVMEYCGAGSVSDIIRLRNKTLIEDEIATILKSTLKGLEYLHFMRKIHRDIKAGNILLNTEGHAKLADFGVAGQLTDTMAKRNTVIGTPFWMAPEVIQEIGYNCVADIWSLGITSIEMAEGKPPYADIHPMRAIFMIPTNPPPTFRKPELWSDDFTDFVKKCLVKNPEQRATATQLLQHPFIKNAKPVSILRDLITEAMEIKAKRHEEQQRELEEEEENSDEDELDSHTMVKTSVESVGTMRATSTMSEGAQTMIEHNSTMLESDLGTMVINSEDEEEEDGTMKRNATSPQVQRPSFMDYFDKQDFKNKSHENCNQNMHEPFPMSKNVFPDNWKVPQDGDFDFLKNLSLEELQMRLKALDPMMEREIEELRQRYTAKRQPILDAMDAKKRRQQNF

STK3 Catalytic Domain = target: T13, STK3 Catalytic Domain (Homo sapiens, UniProt Q13188); details: 2 µM protein, 10 µM inhibitor, average of 3 experiments, each in duplicate
T13 construct: For all of them, we expressed and purified the catalytic domain separately; His-tag; made in house; host or cells: Escherichia coli
T13 sequence (Q13188 27-278 limits assumed): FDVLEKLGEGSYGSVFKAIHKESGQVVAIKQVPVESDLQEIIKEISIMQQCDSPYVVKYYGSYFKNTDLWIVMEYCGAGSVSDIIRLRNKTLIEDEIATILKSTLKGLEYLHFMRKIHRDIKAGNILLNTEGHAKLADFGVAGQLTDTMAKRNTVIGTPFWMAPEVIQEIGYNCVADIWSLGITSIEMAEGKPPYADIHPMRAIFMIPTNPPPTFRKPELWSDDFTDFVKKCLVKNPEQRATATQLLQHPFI

T9 sequence (O96013 whole entry, the tested form may be a part): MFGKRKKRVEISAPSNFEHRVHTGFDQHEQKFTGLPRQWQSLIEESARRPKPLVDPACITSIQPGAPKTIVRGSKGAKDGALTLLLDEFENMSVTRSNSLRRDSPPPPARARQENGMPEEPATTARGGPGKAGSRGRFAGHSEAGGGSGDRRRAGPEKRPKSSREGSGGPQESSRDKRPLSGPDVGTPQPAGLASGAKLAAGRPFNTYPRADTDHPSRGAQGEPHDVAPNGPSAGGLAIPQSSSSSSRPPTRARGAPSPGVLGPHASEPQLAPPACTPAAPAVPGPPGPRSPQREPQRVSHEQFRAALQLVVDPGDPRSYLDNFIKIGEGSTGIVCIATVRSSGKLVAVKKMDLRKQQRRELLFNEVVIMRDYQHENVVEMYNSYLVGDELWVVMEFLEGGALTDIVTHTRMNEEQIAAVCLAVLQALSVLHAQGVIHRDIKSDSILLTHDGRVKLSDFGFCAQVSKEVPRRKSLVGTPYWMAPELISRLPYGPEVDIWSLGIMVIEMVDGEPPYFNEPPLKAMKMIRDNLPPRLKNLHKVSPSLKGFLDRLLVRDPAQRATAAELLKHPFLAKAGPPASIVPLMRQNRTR
T1 sequence (Q9Y243 122-479): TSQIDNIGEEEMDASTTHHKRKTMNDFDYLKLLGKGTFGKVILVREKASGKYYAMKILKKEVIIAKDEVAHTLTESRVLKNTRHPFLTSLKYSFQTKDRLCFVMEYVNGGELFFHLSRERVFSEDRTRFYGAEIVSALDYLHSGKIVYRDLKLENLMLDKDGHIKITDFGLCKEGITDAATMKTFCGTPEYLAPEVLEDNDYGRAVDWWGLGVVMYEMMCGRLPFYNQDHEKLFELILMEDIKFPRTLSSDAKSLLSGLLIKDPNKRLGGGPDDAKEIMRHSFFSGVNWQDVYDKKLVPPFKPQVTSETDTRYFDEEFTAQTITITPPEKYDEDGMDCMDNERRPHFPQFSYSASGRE
T8 sequence (P07332 561-822 limits assumed): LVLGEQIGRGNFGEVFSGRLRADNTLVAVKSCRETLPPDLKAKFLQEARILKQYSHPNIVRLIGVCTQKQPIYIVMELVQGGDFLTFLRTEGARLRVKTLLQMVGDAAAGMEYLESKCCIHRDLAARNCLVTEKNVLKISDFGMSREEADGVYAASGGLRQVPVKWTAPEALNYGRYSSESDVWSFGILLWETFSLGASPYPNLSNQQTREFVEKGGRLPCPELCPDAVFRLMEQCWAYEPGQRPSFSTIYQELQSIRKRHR
T10 sequence (O96013 321-572 limits assumed): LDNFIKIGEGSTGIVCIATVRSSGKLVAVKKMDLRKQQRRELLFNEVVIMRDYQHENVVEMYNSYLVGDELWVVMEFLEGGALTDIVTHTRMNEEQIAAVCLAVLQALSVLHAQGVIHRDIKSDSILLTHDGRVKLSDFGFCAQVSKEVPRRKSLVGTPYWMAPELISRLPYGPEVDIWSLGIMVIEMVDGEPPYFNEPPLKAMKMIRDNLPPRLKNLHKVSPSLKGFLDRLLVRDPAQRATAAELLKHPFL
Chain of SRC Catalytic Domain+SH2+SH3 (P12931 84-523 limits assumed): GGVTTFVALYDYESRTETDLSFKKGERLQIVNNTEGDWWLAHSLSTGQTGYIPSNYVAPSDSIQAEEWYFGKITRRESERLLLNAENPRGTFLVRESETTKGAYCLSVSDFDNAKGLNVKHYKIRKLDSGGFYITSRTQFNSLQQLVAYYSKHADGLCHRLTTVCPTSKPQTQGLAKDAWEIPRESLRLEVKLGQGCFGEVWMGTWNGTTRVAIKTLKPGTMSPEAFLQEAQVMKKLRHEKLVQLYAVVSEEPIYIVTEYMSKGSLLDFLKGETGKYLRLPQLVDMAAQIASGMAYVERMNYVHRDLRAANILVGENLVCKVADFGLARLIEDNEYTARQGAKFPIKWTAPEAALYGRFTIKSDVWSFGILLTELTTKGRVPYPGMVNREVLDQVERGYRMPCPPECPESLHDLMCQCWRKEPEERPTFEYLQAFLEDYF
T11 sequence (Q9P286 449-700 limits assumed): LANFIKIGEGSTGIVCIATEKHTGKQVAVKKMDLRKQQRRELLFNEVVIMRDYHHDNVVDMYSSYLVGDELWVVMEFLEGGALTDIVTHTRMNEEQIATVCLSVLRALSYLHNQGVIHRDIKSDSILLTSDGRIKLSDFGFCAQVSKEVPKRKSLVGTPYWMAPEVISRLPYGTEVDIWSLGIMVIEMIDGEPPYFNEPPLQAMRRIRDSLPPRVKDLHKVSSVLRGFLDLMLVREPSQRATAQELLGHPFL
T7 sequence (P07332 448-822 limits assumed): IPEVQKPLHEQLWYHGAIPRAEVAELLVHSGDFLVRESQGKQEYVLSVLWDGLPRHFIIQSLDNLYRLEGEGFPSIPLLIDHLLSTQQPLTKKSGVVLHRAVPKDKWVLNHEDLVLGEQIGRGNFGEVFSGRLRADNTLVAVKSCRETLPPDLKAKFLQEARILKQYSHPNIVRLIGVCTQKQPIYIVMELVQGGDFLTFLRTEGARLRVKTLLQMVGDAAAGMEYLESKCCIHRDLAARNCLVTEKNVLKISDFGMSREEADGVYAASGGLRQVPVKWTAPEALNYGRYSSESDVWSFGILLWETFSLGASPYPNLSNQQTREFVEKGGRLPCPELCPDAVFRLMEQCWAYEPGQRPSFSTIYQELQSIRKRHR
T6 sequence (Q14289 425-683 limits assumed): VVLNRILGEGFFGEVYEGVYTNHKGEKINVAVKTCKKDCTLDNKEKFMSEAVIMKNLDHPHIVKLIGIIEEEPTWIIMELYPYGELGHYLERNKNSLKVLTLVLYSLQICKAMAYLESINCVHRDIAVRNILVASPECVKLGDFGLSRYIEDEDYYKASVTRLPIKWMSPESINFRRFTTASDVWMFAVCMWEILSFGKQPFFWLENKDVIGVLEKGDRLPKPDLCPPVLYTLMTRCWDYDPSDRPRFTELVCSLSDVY
T4 sequence (O96017 220-486 limits assumed): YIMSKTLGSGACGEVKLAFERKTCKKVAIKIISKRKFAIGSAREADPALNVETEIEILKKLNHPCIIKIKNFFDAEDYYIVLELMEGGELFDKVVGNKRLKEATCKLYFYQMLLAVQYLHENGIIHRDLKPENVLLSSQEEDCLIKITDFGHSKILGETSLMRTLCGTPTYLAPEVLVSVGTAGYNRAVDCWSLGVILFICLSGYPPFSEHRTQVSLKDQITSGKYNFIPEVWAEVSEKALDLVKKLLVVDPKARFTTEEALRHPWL

Row | SMILES | Melting temperature (Tm) shift (AKT3 Catalytic Domain) | Melting temperature (Tm) shift (CDK2 + Cyclin A) | Melting temperature (Tm) shift (CDK2 + Cyclin E) | Melting temperature (Tm) shift (CHK2 Catalytic Domain) | Melting temperature (Tm) shift (DMPK Catalytic Domain) | Melting temperature (Tm) shift (FAK2 Catalytic Domain) | Melting temperature (Tm) shift (FES Catalytic Domain+SH2) | Melting temperature (Tm) shift (FES Catalytic Domain) | Melting temperature (Tm) shift [1] | Melting temperature (Tm) shift (PAK4 Catalytic Domain) | Melting temperature (Tm) shift (PAK7 Catalytic Domain) | Melting temperature (Tm) shift [2] | Melting temperature (Tm) shift [3] | Melting temperature (Tm) shift (STK3 Catalytic Domain)
1 | Cl.NCCCn1cc(C2=C(c3c[nH]c4ccccc34)C(=O)NC2=O)c2ccccc21 [Bisindolylmaleimide III, Hydrochloride] | 0.6 degrees Celcius | 2.1 degrees Celcius | 0.7 degrees Celcius | 5.6 degrees Celcius | 4.2 degrees Celcius | 0.7 degrees Celcius | 0.5 degrees Celcius | 0.8 degrees Celcius | 1.6 degrees Celcius | 1.4 degrees Celcius | 1.1 degrees Celcius | 0.0 degrees Celcius | 4.6 degrees Celcius | 1.8 degrees Celcius
2 | Cl.Cl.O=S(=O)(NCCNC/C=C/c1ccc(Br)cc1)c1cccc2cnccc12 [H-89, Dihydrochloride] | 0.3 degrees Celcius | 0.5 degrees Celcius | 0.3 degrees Celcius | 0.5 degrees Celcius | 0.0 degrees Celcius | 0.8 degrees Celcius | 0.2 degrees Celcius | 0.4 degrees Celcius | 0.0 degrees Celcius | 0.4 degrees Celcius | 0.3 degrees Celcius | 0.0 degrees Celcius | 0.4 degrees Celcius | 0.0 degrees Celcius
3 | N#CC(c1ccnc(NCCc2cccnc2)n1)c1nc2ccccc2s1 (stereo not shown) [JNK Inhibitor V] | 0.0 degrees Celcius | 0.2 degrees Celcius | 0.3 degrees Celcius | 0.3 degrees Celcius | 0.8 degrees Celcius | 0.4 degrees Celcius | 0.0 degrees Celcius |  | 0.1 degrees Celcius | 0.1 degrees Celcius | 0.0 degrees Celcius | 0.1 degrees Celcius | 0.3 degrees Celcius | 0.2 degrees Celcius
4 | O=c1c(O)c(-c2ccc(O)c(O)c2)oc2cc(O)c(O)c(O)c12 [Quercetagetin] | 2.5 degrees Celcius | 0.2 degrees Celcius | 0.7 degrees Celcius | 1.1 degrees Celcius |  | 0.2 degrees Celcius | 0.1 degrees Celcius | 0.1 degrees Celcius | 0.3 degrees Celcius | 0.0 degrees Celcius | 0.1 degrees Celcius | 0.0 degrees Celcius | 0.5 degrees Celcius | 0.2 degrees Celcius
5 | Nc1ncnc2c1c(I)cn2[C@@H]1O[C@H](CO)[C@@H](O)[C@H]1O [5-Iodotubercidin] | 0.0 degrees Celcius | 2.5 degrees Celcius | 1.3 degrees Celcius | 0.6 degrees Celcius | 0.2 degrees Celcius | 0.4 degrees Celcius | 0.0 degrees Celcius | 1.0 degrees Celcius | 0.7 degrees Celcius | 0.7 degrees Celcius | 0.4 degrees Celcius | 0.1 degrees Celcius | 1.5 degrees Celcius | 3.0 degrees Celcius
6 | O=C1c2ccccc2-c2n[nH]c3cccc1c23 [JNK Inhibitor II] | 0.1 degrees Celcius | 1.2 degrees Celcius | 0.3 degrees Celcius | 5.2 degrees Celcius | 1.4 degrees Celcius | 1.0 degrees Celcius | 0.9 degrees Celcius | 2.6 degrees Celcius | 1.0 degrees Celcius | 1.1 degrees Celcius | 0.7 degrees Celcius |  | 1.3 degrees Celcius | 2.0 degrees Celcius
7 | CC(C)c1nn(-c2c(Cl)cccc2Cl)c2nc(Cc3ccc(OCCO)cc3)[nH]c(=O)c12 [Cdk/Crk Inhibitor] | 0.0 degrees Celcius | 7.5 degrees Celcius | 5.5 degrees Celcius | 0.6 degrees Celcius | 1.3 degrees Celcius | 0.5 degrees Celcius | 0.1 degrees Celcius | 0.6 degrees Celcius | 1.1 degrees Celcius | 1.9 degrees Celcius | 2.0 degrees Celcius |  | 0.2 degrees Celcius | 0.8 degrees Celcius
